From patent US20060063759A1, “Tricyclic steroid hormone nuclear receptor modulators” (priority 2002, published 2006)

Experiments:
human MR = target: T1, human MR (Homo sapiens, UniProt P08235); experiment: Mineralocorticoid Receptor Binding Assay ([3H]-aldosterone); settings: [3H]-aldosterone binding, human MR expressed in Sf9 cells; read-out: MR Ki
T1 construct: The full length human MR gene is cloned from a human kidney or human brain cDNA library; His tag from the pAcHLT vector (own knowledge); made in house; host or cells: Sf9 insect cells (baculovirus, pAcHLT transfer vector)
T1 sequence (P08235 1-984): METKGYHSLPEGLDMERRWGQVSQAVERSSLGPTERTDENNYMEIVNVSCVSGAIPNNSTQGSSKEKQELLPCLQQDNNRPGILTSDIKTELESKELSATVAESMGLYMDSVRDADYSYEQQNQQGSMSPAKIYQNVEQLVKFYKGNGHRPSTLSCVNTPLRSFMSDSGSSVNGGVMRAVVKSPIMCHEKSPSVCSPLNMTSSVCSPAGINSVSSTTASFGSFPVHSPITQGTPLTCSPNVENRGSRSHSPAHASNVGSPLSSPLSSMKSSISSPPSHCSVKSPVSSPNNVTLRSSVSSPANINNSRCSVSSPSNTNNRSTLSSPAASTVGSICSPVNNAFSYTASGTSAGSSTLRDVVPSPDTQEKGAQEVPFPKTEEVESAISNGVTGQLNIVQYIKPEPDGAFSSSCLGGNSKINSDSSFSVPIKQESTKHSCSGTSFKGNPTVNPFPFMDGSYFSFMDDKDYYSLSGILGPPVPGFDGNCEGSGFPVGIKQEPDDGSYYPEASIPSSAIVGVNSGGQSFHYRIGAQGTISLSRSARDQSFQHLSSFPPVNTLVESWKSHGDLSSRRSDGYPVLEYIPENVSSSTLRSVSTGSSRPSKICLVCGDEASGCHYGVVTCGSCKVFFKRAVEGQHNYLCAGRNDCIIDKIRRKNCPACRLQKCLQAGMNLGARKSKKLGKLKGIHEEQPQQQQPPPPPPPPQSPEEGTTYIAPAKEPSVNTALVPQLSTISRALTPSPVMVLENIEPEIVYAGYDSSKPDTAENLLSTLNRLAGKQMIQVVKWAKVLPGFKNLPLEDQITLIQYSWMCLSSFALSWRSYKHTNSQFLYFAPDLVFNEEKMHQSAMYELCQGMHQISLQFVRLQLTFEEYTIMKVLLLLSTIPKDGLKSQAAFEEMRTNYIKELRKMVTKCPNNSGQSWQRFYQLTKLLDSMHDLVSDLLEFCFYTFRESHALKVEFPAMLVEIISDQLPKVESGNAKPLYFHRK
Procedure, shortened: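 Lysate supernatant of Sf9 cells expressing full-length human MR (20-25 μg protein) was incubated with 0.5 nM [3H]-aldosterone and test compound in molybdate/Tris/phosphate/glycerol buffer, pH 7.5, ~16 h at 4 °C. Bound ligand was filtered and counted by scintillation; IC50 is the concentration halving [3H]-aldosterone binding.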

glucocorticoid receptor = target: T2, glucocorticoid receptor (Homo sapiens, UniProt P04150); experiment: Glucocorticoid Receptor Binding Assay ([3H]-dexamethasone, A549 cell extract); settings: [3H]-dexamethasone binding, read-out: GR Ki
T2 construct: containing 50-200 ug of A549 cell extract and 1.86 nM [^3H]-dexamethasone; host or cells: A549 human lung epithelial cells (sonicated cell extract)
T2 sequence (P04150 1-777): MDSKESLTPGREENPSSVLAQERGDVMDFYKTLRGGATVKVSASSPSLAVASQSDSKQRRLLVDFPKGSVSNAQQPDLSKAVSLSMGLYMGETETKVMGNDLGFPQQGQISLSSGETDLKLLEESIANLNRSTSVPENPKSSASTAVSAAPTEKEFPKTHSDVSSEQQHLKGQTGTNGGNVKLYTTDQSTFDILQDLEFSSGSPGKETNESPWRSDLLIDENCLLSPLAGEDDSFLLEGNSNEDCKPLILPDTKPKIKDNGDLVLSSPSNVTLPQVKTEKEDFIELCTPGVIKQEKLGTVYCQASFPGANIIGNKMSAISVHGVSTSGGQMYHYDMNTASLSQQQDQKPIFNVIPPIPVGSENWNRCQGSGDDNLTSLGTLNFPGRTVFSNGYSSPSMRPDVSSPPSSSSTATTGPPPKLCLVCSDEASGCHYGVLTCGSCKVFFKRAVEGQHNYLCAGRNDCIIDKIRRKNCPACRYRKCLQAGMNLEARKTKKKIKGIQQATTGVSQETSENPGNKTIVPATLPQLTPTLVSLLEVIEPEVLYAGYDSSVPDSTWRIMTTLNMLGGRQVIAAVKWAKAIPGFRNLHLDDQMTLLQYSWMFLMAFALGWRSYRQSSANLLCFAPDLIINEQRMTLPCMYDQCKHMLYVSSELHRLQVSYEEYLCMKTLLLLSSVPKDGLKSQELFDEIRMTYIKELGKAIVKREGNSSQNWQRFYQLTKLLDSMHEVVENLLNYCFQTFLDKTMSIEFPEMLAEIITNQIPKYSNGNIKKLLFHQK
Procedure, shortened: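 A549 cell extract (50–200 ug) incubated with 1.86 nM [3H]-dexamethasone and test compound for 16 h at 4 °C in Tris-HCl pH 7.2 buffer with glycerol and molybdate. Unbound radioligand removed by dextran-coated charcoal, then supernatant bound counts measured by scintillation.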

Ki (human MR) [nM] | Ki (glucocorticoid receptor) [nM] | Structure (SMILES)
< 500 | < 500 | NC(=O)Nc1ccc(C=C2c3ccccc3CCc3ccccc32)cc1 [Example 129, [4-(10,11-Dihydro-dibenzo[a,d]cyclohepten-5-ylidenemethyl)-phenyl]-urea]
< 500 | < 10000 | Cc1ccccc1C=C1c2ccccc2CCc2ccccc21 [Example 130, 5-(2-Methyl-benzylidene)-10,11-dihydro-5H-dibenzo [a,d]cycloheptene]
< 500 | < 10000 | Cc1ccccc1CC1c2ccccc2CCc2ccccc21 [Example 131, 5-(2-Methyl-benzyl)-10,11-dihydro-5H-dibenzo[a,d]cycloheptene]
< 500 | < 1000 | Cc1cccc(C=C2c3ccccc3CCc3ccccc32)c1 [Example 132, 5-(3-Methyl-benzylidene)-10,11-dihydro-5H-dibenzo[a,d]cycloheptene]
< 500 | < 1000 | Cc1cccc(CC2c3ccccc3CCc3ccccc32)c1 [Example 133, 5-(3-Methyl-benzyl)-10,11-dihydro-5H-dibenzo[a,d]cycloheptene]
< 500 | < 1000 | FC(F)(F)c1cccc(CC2c3ccccc3CCc3ccccc32)c1 [Example 137, 5-(3-Trifluoromethyl-benzyl)-10,11-dihydro-5H-dibenzo[a,d]cycloheptene]
< 500 | < 500 | FC(F)(F)c1cc(CC2c3ccccc3CCc3ccccc32)cc(C(F)(F)F)c1 [Example 141, 5-(3,5-Bis-Trifluoromethyl-benzyl)-10,11-dihydro-5H-dibenzo[a,d]cycloheptene]
< 500 | < 10000 | Cn1cnc(S(=O)(=O)Nc2ccc(C=C3c4ccccc4CCc4ccccc43)cc2)c1 [Example 143, 1-Methyl-1H-imidazole-4-sulfonic acid [4-(10,11-dihydro-dibenzo[a,d]cyclohepten-5-ylidenemethyl)-phenyl]-amide]
< 500 | < 500 | CS(=O)(=O)NCc1cccc(C=C2c3ccccc3CCc3ccccc32)c1 [Example 145, N-[3-(10,11-Dihydro-dibenzo[a,d]cyclohepten-5-ylidenemethyl)-benzyl]-methanesulfonamide]
< 500 | < 1000 | COc1cc(C=C2c3ccccc3CCc3ccccc32)ccc1F [Example 148, 5-(4-Fluoro-3-methoxy-benzylidene)-10,11-dihydro-5H-dibenzo[a,d]cycloheptene]
< 500 | < 500 | Oc1cc(C=C2c3ccccc3CCc3ccccc32)ccc1F [Example 149, 5-(10,11-Dihydro-dibenzo[a,d]cyclohepten-5-ylidenemethyl)-2-fluoro-phenol]
< 500 | < 1000 | Oc1ccc(F)c(C=C2c3ccccc3CCc3ccccc32)c1 [Example 151, 3-(10,11-Dihydro-dibenzo[a,d]cyclohepten-5-ylidenemethyl)-4-fluoro-phenol]
< 500 | < 10000 | COc1cccc(C=C2c3ccccc3CCc3ccccc32)c1F [Example 152, 5-(2-Fluoro-3-methoxy-benzylidene)-10,11-dihydro-5H-dibenzo[a,d]cycloheptene]
< 500 | < 1000 | COc1cc(F)cc(C=C2c3ccccc3CCc3ccccc32)c1 [Example 154, 5-(3-Fluoro-5-methoxy-benzylidene)-10,11-dihydro-5H-dibenzo[a,d]cycloheptene]
< 500 | < 500 | Oc1cc(F)cc(C=C2c3ccccc3CCc3ccccc32)c1 [Example 155, 3-(10,11-Dihydro-dibenzo[a,d]cyclohepten-5-ylidenemethyl)-5-fluoro-phenol]
< 500 | < 1000 | Oc1cc(C=C2c3ccccc3CCc3ccccc32)ccc1Cl [Example 157, 2-Chloro-5-(10,11-dihydro-dibenzo[a,d]cyclohepten-5-ylidenemethyl)-phenol]
